Series [1] relates to Monocotyledonous and dicotyledonous weed. Description: Post-emergence test experiment, weed control effect (Table 2). The class given is in vivo. Also noted: key to weed control effect, Setaria viridis (level) / weed control effect, Rorippa indica (level) / weed control effect, Abutilon theophrasti (level) / weed control effect, Echinochloa crus-galli (level) / weed control effect, Digitaria sanguinalis (level): Level 10: completely dead; Level 9: above 90% growth inhibition rate; Level 8: above 80% growth inhibition rate; Level 7: above 70% growth inhibition rate; Level 6: above 60% growth inhibition rate; Level 5: above 50% growth inhibition rate; Level 4: above 30% growth inhibition rate; Level 3: above 20% growth inhibition rate; Level 2: above 10% growth inhibition rate; Level 1: above 1-10% growth inhibition rate; Level 0: no effect. The note with it: 3 weeks after spraying, greenhouse. In a few lines: (§1)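 Compounds, dissolved in acetone, mixed with Tween 80 and diluted in water, were sprayed post-emergence onto greenhouse-grown weeds and crops at the 2-3 leaf stage (2-3 weeks post-sowing). Plants then grown 3 more weeks in the greenhouse before evaluation.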

The subject of series [2] is main crop (wheat, corn, rice, soybean, cotton, oilseed, millet and sorghum). Put plainly: Post-emergence test experiment, main crops (Table 2). The series is classed as in vivo. Also on record: key: Level 10: completely dead; Level 9: above 90% growth inhibition rate; Level 8: above 80% growth inhibition rate; Level 7: above 70% growth inhibition rate; Level 6: above 60% growth inhibition rate; Level 5: above 50% growth inhibition rate; Level 4: above 30% growth inhibition rate; Level 3: above 20% growth inhibition rate; Level 2: above 10% growth inhibition rate; Level 1: above 1-10% growth inhibition rate; Level 0: no effect. The note with it: 3 weeks after spraying, greenhouse. In outline:
as §1

`Cc1cnn(Cc2c(S(C)(=O)=O)ccc(C(=O)c3cnn(C(C)C)c3OC(=O)c3cn(C)nc3C)c2Cl)c1` [Compound 97]: in series [1] (120 g/ha), the “weed control effect, Abutilon theophrasti (level)” value is given as 6 (Level 6: above 60% growth inhibition rate); the “weed control effect, Bidens pilosa (level)” value is given as 6 (Level 6: above 60% growth inhibition rate); the “weed control effect, Digitaria sanguinalis (level)” value is 1 (Level 1: above 1-10% growth inhibition rate); the “weed control effect, Echinochloa crus-galli (level)” value came out at 10. Moreover, in series [1] (120 g/ha), the “weed control effect, Rorippa indica (level)” value is on record as 4 (Level 4: above 30% growth inhibition rate) and the “weed control effect, Setaria viridis (level)” value was 3 (Level 3: above 20% growth inhibition rate). For the same compound, in series [2] (120 g/ha), the “effect on crop, corn (level)” value was found to be 0; the “effect on crop, rice (level)” value is given as 0; the “effect on crop, wheat (level)” value worked out at 0.

Take `Cc1nn(C)cc1C(=O)Oc1c(C(=O)c2ccc(S(C)(=O)=O)c(COCC(F)(F)F)c2Cl)c(C)nn1C(C)C` [Compound 98]: in series [1] (30 g/ha), the “weed control effect, Abutilon theophrasti (level)” value is 5 (Level 5: above 50% growth inhibition rate); the “weed control effect, Bidens pilosa (level)” value is recorded as 7 (Level 7: above 70% growth inhibition rate); the “weed control effect, Digitaria sanguinalis (level)” value is 8 (Level 8: above 80% growth inhibition rate); the “weed control effect, Echinochloa crus-galli (level)” value came out at 10. Moreover, in series [1] (30 g/ha), the “weed control effect, Rorippa indica (level)” value is 10 and the “weed control effect, Setaria viridis (level)” value came out at 10. Further, in series [2] (30 g/ha), the “effect on crop, corn (level)” value is reported as 1 (Level 1: above 1-10% growth inhibition rate); the “effect on crop, rice (level)” value is on record as 5 (Level 5: above 50% growth inhibition rate); the “effect on crop, wheat (level)” value came to 0.

On to `CCc1nn(C(C)C)c(OC(=O)c2cn(C)nc2C)c1C(=O)c1ccc(S(C)(=O)=O)c(Cn2cccn2)c1Cl` [Compound 99], for which, in series [1] (30 g/ha), the “weed control effect, Abutilon theophrasti (level)” value is recorded as 7 (Level 7: above 70% growth inhibition rate); the “weed control effect, Bidens pilosa (level)” value is recorded as 7 (Level 7: above 70% growth inhibition rate); the “weed control effect, Digitaria sanguinalis (level)” value is 7 (Level 7: above 70% growth inhibition rate); the “weed control effect, Echinochloa crus-galli (level)” value is reported as 10. For the same compound, in series [1] (30 g/ha), the “weed control effect, Rorippa indica (level)” value was determined as 10 and the “weed control effect, Setaria viridis (level)” value is reported as 8 (Level 8: above 80% growth inhibition rate). Further, in series [2] (30 g/ha), the “effect on crop, corn (level)” value was 1 (Level 1: above 1-10% growth inhibition rate); the “effect on crop, rice (level)” value is given as 1 (Level 1: above 1-10% growth inhibition rate); the “effect on crop, wheat (level)” value is recorded as 0.

Consider `Cc1nn(C)cc1C(=O)Oc1c(C(=O)c2ccc(S(C)(=O)=O)c(COCC3CCCO3)c2Cl)c(C)nn1C(C)C` (stereo not drawn) [Compound 101], for which, in series [1] (250 g/ha), the “weed control effect, Abutilon theophrasti (level)” value is reported as 7 (Level 7: above 70% growth inhibition rate); the “weed control effect, Bidens pilosa (level)” value is reported as 7 (Level 7: above 70% growth inhibition rate); the “weed control effect, Digitaria sanguinalis (level)” value was 6 (Level 6: above 60% growth inhibition rate); the “weed control effect, Echinochloa crus-galli (level)” value is listed as 9 (Level 9: above 90% growth inhibition rate). Besides, in series [1] (250 g/ha), the “weed control effect, Rorippa indica (level)” value is listed as 10 and the “weed control effect, Setaria viridis (level)” value is on record as 7 (Level 7: above 70% growth inhibition rate). Further, in series [2] (250 g/ha), the “effect on crop, corn (level)” value was 1 (Level 1: above 1-10% growth inhibition rate); the “effect on crop, rice (level)” value is reported as 8 (Level 8: above 80% growth inhibition rate); the “effect on crop, wheat (level)” value is recorded as 0.

Values taken from patent US10556888B2, “Pyrazole compounds or salts thereof, preparation methods therefor, herbicidal compositions and use thereof” (QINGDAO KINGAGROOT CHEMICAL COMPOUNDS CO., LTD, priority 2015, dated 2020).
